The text below walks through data of ChEMBL document CHEMBL4840307, “Synthesis and biological evaluation of 1-(4-(piperazin-1-yl)phenyl)pyridin-2(1H)-one derivatives as potential SSRIs” (Eur J Med Chem, 2021).

Active and inactive are the calls of the source. The calls are words filed in the database; no cut-off is given here.

Series [1] is described as follows: Metabolic stability in rat liver microsomes assessed as half life incubated for 60 mins by LC-MS/MS analysis. The class given is ADME, Microsome.
Series [2] can be described thus: AUC (0 to t) in Sprague-Dawley rat at 5 mg/kg, po measured by LC-MS/MS analysis. The class given is ADME, organism-based. Also noted: dose 5 mg/kg. The settings on record: in vivo.
Series [3] can be described thus: Oral bioavailability in Sprague-Dawley rat at 5 mg/kg measured by LC-MS/MS analysis. The settings on record: in vivo. The class given is ADME, organism-based.
Series [4] is described as follows: Volume of distribution in steady state in Sprague-Dawley rat at 2 mg/kg, iv measured by LC-MS/MS analysis. It is filed as ADME, organism-based. The settings on record: in vivo, read-out: Vdss.
Series [5] has as its target T1, 5-hydroxytryptamine receptor 1A (Homo sapiens, UniProt P08908).
T1 sequence (P08908 whole entry): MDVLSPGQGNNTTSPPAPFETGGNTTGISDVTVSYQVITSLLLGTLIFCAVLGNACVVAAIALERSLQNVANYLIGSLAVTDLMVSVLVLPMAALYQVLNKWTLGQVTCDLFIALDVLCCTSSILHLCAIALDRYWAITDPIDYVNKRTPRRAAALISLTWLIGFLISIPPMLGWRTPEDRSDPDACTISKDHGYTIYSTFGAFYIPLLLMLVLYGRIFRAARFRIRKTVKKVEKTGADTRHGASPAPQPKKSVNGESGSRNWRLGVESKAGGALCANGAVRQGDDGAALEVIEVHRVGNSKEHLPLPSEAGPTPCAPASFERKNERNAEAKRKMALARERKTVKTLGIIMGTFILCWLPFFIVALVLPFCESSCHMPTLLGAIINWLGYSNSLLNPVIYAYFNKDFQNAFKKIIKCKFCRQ
The series is described as follows: Inhibition of 5-HT1a (unknown origin).

Series [6] relates to Rattus norvegicus. The series is described as follows: Antidepressant-like activity in rat assessed as reduction in immobility time at 3 ml/kg, sc measured after 60 mins by Forced swimming test. It is filed as functional, organism-based.
Series [7] can be described thus: Half life in Sprague-Dawley rat at 2 mg/kg, iv measured by LC-MS/MS analysis. The class given is ADME, organism-based. As to conditions: in vivo.
Series [8] is described as follows: Half life in Sprague-Dawley rat at 5 mg/kg, po measured by LC-MS/MS analysis. The class given is ADME, organism-based. As to conditions: in vivo.
For series [9], the system named is Rattus norvegicus. The series is described as follows: Antidepressant-like activity in rat assessed as reduction in immobility time at 10 ml/kg, sc measured after 60 mins by Forced swimming test. It is filed as functional, organism-based.
A short description of series [10]: Clearance in Sprague-Dawley rat at 2 mg/kg, iv measured by LC-MS/MS analysis. It is filed as ADME, organism-based. The settings on record: in vivo.
Series [11] has as its target T2, 5-hydroxytryptamine receptor 3A (Homo sapiens, UniProt P46098).
T2 sequence (P46098 whole entry): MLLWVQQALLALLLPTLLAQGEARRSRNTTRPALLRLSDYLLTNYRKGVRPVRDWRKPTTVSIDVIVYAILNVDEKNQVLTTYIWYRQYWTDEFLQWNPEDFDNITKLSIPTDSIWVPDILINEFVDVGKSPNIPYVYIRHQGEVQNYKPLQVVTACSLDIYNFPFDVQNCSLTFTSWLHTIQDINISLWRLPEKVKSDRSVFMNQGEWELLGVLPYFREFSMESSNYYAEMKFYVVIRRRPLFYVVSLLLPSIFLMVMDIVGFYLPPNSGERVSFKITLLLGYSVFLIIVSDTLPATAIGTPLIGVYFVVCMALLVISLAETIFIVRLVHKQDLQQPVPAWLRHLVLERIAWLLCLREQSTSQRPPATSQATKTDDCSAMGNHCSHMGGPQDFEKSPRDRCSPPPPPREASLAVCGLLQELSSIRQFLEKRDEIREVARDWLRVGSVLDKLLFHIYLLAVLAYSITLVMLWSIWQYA
The series is described as follows: Inhibition of 5-HT3 (unknown origin).

A short description of series [12]: Cmax in Sprague-Dawley rat at 5 mg/kg, po measured by LC-MS/MS analysis. The class given is ADME, organism-based. Also noted: route oral, dose 5 mg/kg. The settings on record: in vivo.
The target in series [13] is Sodium-dependent serotonin transporter (Rattus norvegicus) (UniProt P31652). The series is described as follows: Antagonist activity at SERT in Sprague-Dawley rat hypothalamus assessed as PCA induced serotonin depletion at 10 mg/kg, iv measured after 30 mins by LC-MS/MS analysis. The class given is organism-based. The settings on record: filed as antagonist.
Sequence of Sodium-dependent serotonin transporter (Rattus norvegicus) (P31652 whole entry): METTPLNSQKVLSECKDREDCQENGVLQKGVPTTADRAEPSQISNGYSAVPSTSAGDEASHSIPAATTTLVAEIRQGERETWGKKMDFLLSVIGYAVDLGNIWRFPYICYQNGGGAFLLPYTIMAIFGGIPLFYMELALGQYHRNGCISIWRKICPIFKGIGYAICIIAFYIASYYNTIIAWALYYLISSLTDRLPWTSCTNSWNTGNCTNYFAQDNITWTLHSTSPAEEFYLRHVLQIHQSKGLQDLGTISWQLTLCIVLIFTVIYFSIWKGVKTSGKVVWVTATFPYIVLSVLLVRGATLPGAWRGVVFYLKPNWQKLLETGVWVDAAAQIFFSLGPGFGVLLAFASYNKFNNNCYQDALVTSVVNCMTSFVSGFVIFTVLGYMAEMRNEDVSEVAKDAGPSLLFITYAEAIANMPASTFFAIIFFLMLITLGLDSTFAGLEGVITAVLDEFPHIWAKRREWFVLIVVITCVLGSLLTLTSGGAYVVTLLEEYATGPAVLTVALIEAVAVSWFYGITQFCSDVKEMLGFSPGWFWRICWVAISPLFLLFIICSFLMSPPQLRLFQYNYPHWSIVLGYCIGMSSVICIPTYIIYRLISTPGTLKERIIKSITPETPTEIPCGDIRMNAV
Series [14] can be described thus: AUC (0 to t) in Sprague-Dawley rat at 2 mg/kg, iv measured by LC-MS/MS analysis. It is filed as ADME, organism-based. Also noted: dose 2 mg/kg. As to conditions: in vivo.
The nature of series [15]: Cmax in Sprague-Dawley rat at 2 mg/kg, iv measured by LC-MS/MS analysis. It is filed as ADME, organism-based. The arrangement: route intravenous, dose 2 mg/kg. The settings on record: in vivo.
The target in series [16] is T3, 5-hydroxytryptamine receptor 2C (Homo sapiens, UniProt P28335).
T3 sequence (P28335 whole entry): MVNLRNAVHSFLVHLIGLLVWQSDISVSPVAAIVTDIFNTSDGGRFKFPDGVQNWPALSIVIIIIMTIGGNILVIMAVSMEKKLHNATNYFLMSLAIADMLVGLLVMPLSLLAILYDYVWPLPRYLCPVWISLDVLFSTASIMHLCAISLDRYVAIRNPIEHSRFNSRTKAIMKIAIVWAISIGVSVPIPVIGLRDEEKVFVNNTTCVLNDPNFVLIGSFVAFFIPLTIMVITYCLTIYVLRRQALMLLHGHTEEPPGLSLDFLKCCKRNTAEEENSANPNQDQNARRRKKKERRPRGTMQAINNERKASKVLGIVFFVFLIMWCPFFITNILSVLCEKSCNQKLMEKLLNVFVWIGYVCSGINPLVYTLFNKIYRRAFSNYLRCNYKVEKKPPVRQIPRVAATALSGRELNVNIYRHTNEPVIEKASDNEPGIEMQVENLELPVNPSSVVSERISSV
The series is described as follows: Inhibition of 5-HT2c (unknown origin).

A short description of series [17]: Metabolic stability in rat liver microsomes assessed as clearance incubated for 60 mins by LC-MS/MS analysis. The class given is ADME, Microsome. As to conditions: read-out: CLH. (Microsomes from liver hold many membrane-bound enzymes, among them those of drug oxidation.)
Series [18] has as its target 5-hydroxytryptamine receptor 2A (Homo sapiens, UniProt P28223). The series is described as follows: Inhibition of 5-HT2a (unknown origin).
Series [19] has as its target Sodium-dependent serotonin transporter (Rattus norvegicus, UniProt P31652). The series is described as follows: Inhibition of serotonin transporter expressed in rat brain tissue assessed as inhibition of [3H]-5-hydroxytryptamine reuptake measured after 15 mins by scintillation counting analysis. The class given is tissue-based.

Sequence of 5-hydroxytryptamine receptor 2A (P28223 whole entry): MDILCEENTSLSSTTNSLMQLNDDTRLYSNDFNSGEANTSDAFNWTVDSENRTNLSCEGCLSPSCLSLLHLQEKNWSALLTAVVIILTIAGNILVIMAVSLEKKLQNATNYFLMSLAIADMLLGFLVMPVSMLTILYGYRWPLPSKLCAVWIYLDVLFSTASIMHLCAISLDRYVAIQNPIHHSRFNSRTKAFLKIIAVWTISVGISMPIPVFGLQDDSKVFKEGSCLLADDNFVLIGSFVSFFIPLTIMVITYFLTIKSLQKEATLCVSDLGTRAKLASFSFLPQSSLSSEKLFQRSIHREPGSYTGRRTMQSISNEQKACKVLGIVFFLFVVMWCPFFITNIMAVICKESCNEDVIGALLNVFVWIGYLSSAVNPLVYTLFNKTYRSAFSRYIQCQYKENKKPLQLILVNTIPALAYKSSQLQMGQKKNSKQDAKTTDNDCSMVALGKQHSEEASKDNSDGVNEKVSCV
Sequence of Sodium-dependent serotonin transporter (P31652 whole entry): as the sequence (P31652 whole entry) above

Turning to `N#Cc1ccc2[nH]cc(CCCCN3CCN(c4ccc(-n5ccc6ncccc6c5=O)cc4)CC3)c2c1`, the half-life (in general, the time in which the quantity being followed falls by half) in series [1] was 1.89 h; in [7], 1.01 h; in [8], 0.82 h. Besides, the AUC(0-t) (commonly the area under the concentration-time curve up to a stated or last time point) in series [2] is 0.189 µg·h/mL; in series [14], 0.823 µg·h/mL. Also, the bioavailability (commonly the share of a dose that reaches the circulation, judged against a reference dose that is usually intravenous) in [3] is 9.19%. The Vd in series [4] was determined as 2.47 L/kg. In addition, the IC50 (in general, the point on the concentration scale where inhibition reaches its midpoint) in series [5] is 0.5 nM; in series [11], more than 10000 nM; in series [16], more than 10000 nM; in [18] it was more than 10000 nM. The result (in the series on Rattus norvegicus [6]; with Rattus norvegicus [9]; in series [13]) was Active. The clearance – broadly, a measure of how efficiently the substance is removed, as volume per time – in series [10] was 2.45 L/h/kg. Also, the Cmax (commonly the highest concentration seen after dosing) in series [12] is 0.0705 µg/mL; in [15], 0.831 µg/mL. Further, the CLint scaled in series [17] was 0.732 L/h/kg.
Turning to `N#Cc1ccc2[nH]cc(CCCN3CCN(c4ccc(-n5ccc6ccccc6c5=O)cc4)CC3)c2c1`, the IC50 in [19] worked out at 10.2 nM.
For `N#Cc1ccc2[nH]cc(CCCCN3CCN(c4ccc(-n5cc(F)ccc5=O)cc4)CC3)c2c1`, the IC50 in [19] was determined as 3.75 nM.
The same measure, in the same setting: under `N#Cc1ccc2[nH]cc(CCCN3CCN(c4ccc(-n5cc(F)ccc5=O)cc4)CC3)c2c1` stands 2.22 nM; under `N#Cc1ccc2[nH]cc(CCCCCN3CCN(c4ccc(-n5cc(F)ccc5=O)cc4)CC3)c2c1`, 6 nM.
Take `N#Cc1ccc2[nH]cc(CCCCN3CCN(c4ccc(-n5ccc6ccccc6c5=O)cc4)CC3)c2c1`: the IC50 in [19] is 4.31 nM.
For the compound `N#Cc1ccc2[nH]cc(CCN3CCN(c4ccc(-n5cc(F)ccc5=O)cc4)CC3)c2c1`, in series [19], the IC50 was 5.51 nM.
On the same count and under the same terms, next, `N#Cc1ccc2[nH]cc(CCCCN3CCN(c4ccc(-n5ccccc5=O)cc4)CC3)c2c1`: 1.6 nM.
Regarding `Cc1ccn(-c2ccc(N3CCN(CCCc4c[nH]c5ccc(C#N)cc45)CC3)cc2)c(=O)c1`, in [19], the IC50 is 2.02 nM.
Take `N#Cc1ccc2[nH]cc(CCCCCN3CCN(c4ccc(-n5ccccc5=O)cc4)CC3)c2c1`: the IC50 in series [19] was found to be 1.35 nM.
Same read-out and setting: next, `Cc1ccn(-c2ccc(N3CCN(CCCCc4c[nH]c5ccc(C#N)cc45)CC3)cc2)c(=O)c1`: 2.03 nM; `Cc1ccn(-c2ccc(N3CCN(CCc4c[nH]c5ccc(C#N)cc45)CC3)cc2)c(=O)c1`: 7.57 nM.
As to `N#Cc1ccc2[nH]cc(CCCCN3CCN(c4ccc5oc(C(N)=O)cc5c4)CC3)c2c1` [VILAZODONE], the half-life in [1] came out at 0.298 h. Also, the CLint scaled in [17] amounted to 4.64 L/h/kg.
Consider `COc1ccn(-c2ccc(N3CCN(CCCc4c[nH]c5ccc(C#N)cc45)CC3)cc2)c(=O)c1`, for which, in series [19], the IC50 was 4.58 nM.
With `N#Cc1ccc2[nH]cc(CCCCN3CCN(c4ccc(-n5ccc6occc6c5=O)cc4)CC3)c2c1`, the values for the half-life in series [1], in [7] and in series [8] were 5.2 h, 1.26 h and 2.26 h, respectively. The AUC(0-t) came to 0.077 µg·h/mL in [2] and 0.559 µg·h/mL in [14]. This compound also returned a bioavailability in series [3] of 5.8%. For the same compound, in series [4], the Vd was found to be 3.21 L/kg. In addition, the half-maximal inhibitory concentration (IC50) was 0.14 nM in series [5], more than 10000 nM in series [11], more than 10000 nM in [16] and more than 10000 nM in [18]. The clearance in series [10] was 3.56 L/h/kg. Moreover, the Cmax was found to be 0.0336 µg/mL in [12] and 0.694 µg/mL in series [15]. In addition, in series [17], the CLint scaled is 0.264 L/h/kg.
On to `N#Cc1ccc2[nH]cc(CCCN3CCN(c4ccc(-n5ccc6ncccc6c5=O)cc4)CC3)c2c1`, for which the half-life in [1] was 0.0735 h. In addition, the IC50 in series [5] is 1.7 nM; in series [11] it was more than 10000 nM; in series [16], more than 10000 nM; in [18] it was more than 10000 nM. Moreover, in [17], the CLint scaled amounted to 18.9 L/h/kg.
